{
  "source": "patent US6103875A",
  "about": "“Antifungal compounds from pseudomonas viridiflava” (Pharmagenesis, Inc., priority 1997, dated 2000)",
  "key": {"[1]": {"tested_on": "Candida albicans 90029", "experiment": "Minimal inhibitory concentration test (modified NCCLS protocol)", "format": "cell-based, Candida albicans (ATCC 90029)", "experimental": "(§1) All fungi used for test purposes for sensitivity to the ecomycins were obtained from the ATCC or from the mycological collection at Montana State University, Bozeman, Mont.\n(§2) Samples of the semi-purified ecomycin preparation, purified Ecomycin A, and Ecomycin B were tested, along with a known antifungal compound, Amphotericin B, in a minimal inhibitory concentration test (MIC) modification of the NCCLS protocol (Galgiani, et al., 1995)."}, "[2]": {"tested_on": "Candida albicans", "experiment": "Synergy with amphotericin B, inhibition of growth in 96-well plates", "format": "cell-based", "experimental": "Briefly, in turning now to the illustrative experiments described in Example 11, varying amounts of amphotericin B were added to varying concentrations of an exemplary composition containing the antifungal lipopeptides of the present invention, extract EB-273, followed by a determination of the resulting inhibition of growth of Candida albicans.\nExperiments were conducted with the semi-purified preparation of ecomycins (extract EB-273), added individually or in combination with sub-fungicidaldoses of Amphotericin B, to 96-well plates inoculated with C. albicans."}, "[3]": {"conditions": "cited from earlier work"}, "[4]": {"tested_on": "Candida kefir 46764", "experiment": "Minimal inhibitory concentration test (modified NCCLS protocol)", "format": "cell-based, Candida kefir (ATCC 46764)", "experimental": "as §1, §2"}, "[5]": {"conditions": "Thomas, 1986; cited from earlier work"}, "[6]": {"tested_on": "Candida glabrata 90030", "experiment": "Minimal inhibitory concentration test (modified NCCLS protocol)", "format": "cell-based, Candida glabrata (ATCC 90030)", "conditions": "Nakaseomyces glabratus", "experimental": "as §1, §2"}, "[7]": {"tested_on": "Candida albicans 90028", "experiment": "Minimal inhibitory concentration test (modified NCCLS protocol)", "format": "cell-based, Candida albicans (ATCC 90028)", "experimental": "as §1, §2"}, "[8]": {"tested_on": "Cryptococcus neoformans 90012", "experiment": "Minimal inhibitory concentration test (modified NCCLS protocol)", "format": "cell-based, Cryptococcus neoformans (ATCC 90012)", "experimental": "as §1, §2"}, "[9]": {"tested_on": "Cryptococcus neoformans 90013", "experiment": "Minimal inhibitory concentration test (modified NCCLS protocol)", "format": "cell-based, Cryptococcus neoformans (ATCC 90013)", "experimental": "as §1, §2"}, "[10]": {"tested_on": "Candida parasilopsis 90018", "experiment": "Minimal inhibitory concentration test (modified NCCLS protocol)", "format": "cell-based, Candida parasilopsis (ATCC 90018)", "experimental": "as §1, §2"}},
  "data": [
    {"smiles": "C[C@@H]1[C@H](O)[C@@H](C)/C=C/C=C/C=C/C=C/C=C/C=C/C=C/[C@H](O[C@@H]2O[C@H](C)[C@@H](O)[C@H](N)[C@@H]2O)C[C@@H]2O[C@](O)(C[C@@H](O)C[C@@H](O)[C@H](O)CC[C@@H](O)C[C@@H](O)CC(=O)O[C@H]1C)C[C@H](O)[C@H]2C(=O)O", "note": "[Amphotericin B]", "values": [
      {"measurement": "MIC", "setting": "[1]", "value": 0.6, "unit": "µg/mL"},
      {"measurement": "inhibition at 0.035 µg/mL", "setting": "[2]; Candida albicans, read-out: inhibitory effect", "value": "~30", "unit": "%"},
      {"measurement": "inhibition at 0.07 µg/mL", "setting": "[2]; Candida albicans, amphotericin B alone, 70 ng/ml, read-out: inhibitory effect", "value": "~25", "unit": "%"},
      {"measurement": "inhibition at 0.105 µg/mL", "setting": "[2]; Candida albicans, amphotericin B alone, 105 ng/ml, read-out: inhibitory effect", "value": "~43", "unit": "%"},
      {"measurement": "inhibition at 0.14 µg/mL", "setting": "[2]; Candida albicans, amphotericin B alone, 140 ng/ml, read-out: inhibitory effect", "value": "~55", "unit": "%"},
      {"measurement": "inhibition at 0.175 µg/mL", "setting": "[2]; Candida albicans, amphotericin B alone, 175 ng/ml, read-out: inhibitory effect", "value": "~84", "unit": "%"},
      {"measurement": "enhancement of inhibitory effect", "setting": "[2]; amphotericin B 70 ng/ml + extract EB-273 about 8-12 μg/ml or greater vs. amphotericin B alone", "value": "nearly four-fold"},
      {"measurement": "inhibitory effect", "setting": "[2]; amphotericin B 70 ng/ml + extract EB-273 at about 8-12 μg/ml or greater", "value": "~100", "unit": "%"},
      {"measurement": "enhancement of activity", "setting": "[2]; amphotericin B 105 ng/ml + extract EB-273 vs. amphotericin B alone", "value": "approximate two-fold enhancement"},
      {"measurement": "enhancement of activity", "setting": "[2]; amphotericin B 140 ng/ml + extract EB-273 vs. amphotericin B alone", "value": "approximate two-fold enhancement"},
      {"measurement": "interaction between amphotericin B and ecomycin extract (isobolographic analyses)", "setting": "[2]; amphotericin B + ecomycin extract EB-273, range of dosage responses", "value": "synergistic rather than additive"},
      {"measurement": "inhibition of C. albicans", "setting": "[2]; amphotericin B alone, 210 ng/ml", "value": "nearly complete inhibition"},
      {"measurement": "reduction of amount of amphotericin B required to effectively suppress growth of Candida", "setting": "[2]; in combination with the lipopeptides composition", "value": "at least 30%"},
      {"measurement": "reduction of amphotericin B concentration required for substantially complete inhibition", "setting": "[2]; with EB-273, [210 ng/ml-175 ng/ml]/210×100", "value": 16, "unit": "%"},
      {"measurement": "reduction of amphotericin B concentration required for substantially complete inhibition", "setting": "[2]; with a suitable concentration of EB-273, fourth of four", "value": 66, "unit": "%"},
      {"measurement": "reduction of amphotericin B concentration required for substantially complete inhibition", "setting": "[2]; with a suitable concentration of EB-273, second of four", "value": 33, "unit": "%"},
      {"measurement": "reduction of amphotericin B concentration required for substantially complete inhibition", "setting": "[2]; with a suitable concentration of EB-273, third of four", "value": 50, "unit": "%"},
      {"measurement": "oral absorption", "setting": "[3]", "value": "not adsorbed orally"},
      {"measurement": "MIC", "setting": "[4]", "value": 0.1, "unit": "µg/mL"},
      {"measurement": "toxicity, undesirable side-effects", "setting": "[5]", "value": "leucopenia, thrombocytopenia, renal tubular acidosis, hypokalemia, hypomagnesemia, headaches, nausea, and anemia"},
      {"measurement": "MIC", "setting": "[6]", "value": 0.6, "unit": "µg/mL"},
      {"measurement": "MIC", "setting": "[7]", "value": 0.6, "unit": "µg/mL"},
      {"measurement": "MIC", "setting": "[8]", "value": 0.1, "unit": "µg/mL"},
      {"measurement": "MIC", "setting": "[9]", "value": 0.3, "unit": "µg/mL"},
      {"measurement": "MIC", "setting": "[10]", "value": 0.1, "unit": "µg/mL"}
    ]}
  ]
}
